Test results reported in article PMC12299576 (Viruses, 2025).
Where two headings read alike, the source gives them in different places.

Key:
HTNV-76118 strain [1] = assay: microbe, parasite or virus in culture; assay type: cell-based, Hantaan virus (HTNV); conditions: Orthohantavirus hantanense, Vero C1008, 120 h
in vitro = conditions: African green monkey
HTNV-76118 strain [2] = assay: microbe, parasite or virus in culture; assay type: cell-based, Hantaan virus (HTNV); conditions: for EC50: Orthohantavirus hantanense, Vero C1008, read-out: EC50, Virucidal
HTNV-76118 strain [3] = assay: microbe, parasite or virus in culture; assay type: cell-based, Hantaan virus (HTNV); conditions: Orthohantavirus hantanense, Vero C1008, read-out: EC50, Post entry
HTNV-76118 strain [4] = assay: microbe, parasite or virus in culture; assay type: cell-based, Hantaan virus (HTNV); conditions: Orthohantavirus hantanense, Vero C1008, read-out: EC50, 2H pretreatment
HTNV = assay type: cell-based, Hantaan virus (HTNV)

Row | SMILES | EC50 (HTNV-76118 strain [1]) [µM] | CC50 (in vitro) [µM] | direct virucidal effect on HTNV (HTNV-76118 strain [2]) | EC50 (HTNV-76118 strain [2]) [µM] | EC50 (HTNV-76118 strain [3]) [µM] | EC50 (HTNV-76118 strain [4]) [µM] | suppression of viral replication (HTNV nucleoprotein immunofluorescence) (HTNV)
1 | CC(C)CC(=O)c1c(O)cc(O)c2c1OC1=C(C(=O)C(C)(C)C(=O)C1(C)C)C2CC(C)C (stereo not shown) [Rhodomyrtosone B, rhodomyrtosone B] | 2.69 ± 0.32 | 7.44 ± 1.15 | – | – | – | – | –
2 | NC(=O)c1ncn([C@@H]2O[C@H](CO)[C@@H](O)[C@H]2O)n1 [Ribavirin, ribavirin, reference compound] | 20.5 ± 1.63 | > 200 | neither compound exhibited a direct virucidal effect | > 200 | 13.2 ± 0.4 | > 200 | –
3 | CC(C)CC(=O)c1c(O)cc2c(c1O)C(CC(C)C)C1=C(O2)C(C)(C)C(=O)C(C)(C)C1=O (stereo not shown) [Rhodomyrtone, rhodomyrtone] | 0.3 ± 0.03 | 5.11 ± 2.49 | – | – | – | – | –
4 | CC(C)CC(=O)c1c(O)c2c(c3c1OC1(O)C(C(=O)C(C)(C)C(=O)C1(C)C)C3C(C)C)OC1=C(C(=O)C(C)(C)C(=O)C1(C)C)C2CC(C)C (stereo not shown) [Callistemontrimer A, callistemontrimer A] | 4.41 ± 3.4 | 32.1 ± 6 | neither compound exhibited a direct virucidal effect | > 50 | 0.65 ± 0.45 | > 50 | effectively suppressed viral replication
5 | CC(C)CC(=O)c1c(O)c2c(c3c1OC1(O)C(C(=O)C(C)(C)C(=O)C1(C)C)C3CC(C)C)OC1=C(C(=O)C(C)(C)C(=O)C1(C)C)C2CC(C)C (stereo not shown) [Callistemontrimer B, callistemontrimer B] | 2.79 ± 1.4 | 16.9 ± 1 | – | – | – | – | –
